Test results from patent US6677316B2, “Adenosine derivatives and methods of administration” (SmithKline Beecham Corporation, priority 1998, dated 2004).

Columns and labels:
[1] = target: T1, human adenosine A1 receptor (Homo sapiens, UniProt P30542); experiment: Reporter gene assay (CRE/SPAP) in CHO cells, agonist potency relative to NECA, adenosine A1 receptor; type: cell-based; parameters: key: equipotent concentration ratio, NECA = 1; conditions: ECR = equipotent concentration ratio relative to NECA = 1, inhibition of forskolin-stimulated SPAP production
T1 construct: expressed in transfected cells; host or cells: Chinese hamster ovary (CHO) cells with CRE/SPAP/HYG reporter elements
T1 sequence (P30542 1-326): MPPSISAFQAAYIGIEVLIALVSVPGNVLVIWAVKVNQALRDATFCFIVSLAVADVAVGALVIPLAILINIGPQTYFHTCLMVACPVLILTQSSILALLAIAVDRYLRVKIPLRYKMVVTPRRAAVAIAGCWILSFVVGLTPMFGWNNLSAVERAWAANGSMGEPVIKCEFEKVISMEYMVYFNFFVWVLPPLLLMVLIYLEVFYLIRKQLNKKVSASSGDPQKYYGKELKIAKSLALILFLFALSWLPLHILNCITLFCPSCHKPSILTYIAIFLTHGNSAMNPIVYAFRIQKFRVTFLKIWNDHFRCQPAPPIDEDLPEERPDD
Description: (§1) Reporter Gene Experiments
(§2) Agonist activity was measured in Chinese hamster ovary (CHO) cells containing the CRE/SPAP/HYG (CRE=cyclic AMP response element; HYG=hygromycin resistance; SPAP=secreted placental alkaline phosphatase) reporter gene elements, which upon stimulation of cAMP levels produced SPAP. A cell line was used, which was stably transfected with either the human adenosine A1 receptor or the human adenosine A3 receptor in addition to the above elements. Cells were plated out in 96-well plates in culture medium and incubated at 37° C. for 1 hour. For measurement of potency, agonists were added to the appropriate wells at a concentration range of approximately 10^−10- 10^−5M. 15Min later, cAMP levels were stimulated by addition of a maximal concentration of forskolin. All cells were then incubated for a further 5 hours at 37° C., and cooled to room temperature, after which a substrate for the phosphatase (para-nitrophenol phosphate, pNPP), which is converted by SPAP to a coloured reagent) was then added and the 96-well -plates were read in a plate reader. From these readings, the concentration-dependence of the inhibition by the agonist for forskolin-stimulated SPAP production can be calculated. One of the agonists tested on each 96-well plate was the standard non-selective agonist, N-ethylcarboxamidoadenosine (NECA), and the potency of all test agonists is expressed relative to that of the NECA standard.
(§3) (ECR=equipotent concentration ratio relative to NECA=1)

[2] = target: T2, human adenosine A3 receptor (Homo sapiens, UniProt P0DMS8); experiment: Reporter gene assay (CRE/SPAP) in CHO cells, agonist potency relative to NECA, adenosine A3 receptor; type: cell-based; parameters: key: equipotent concentration ratio, NECA = 1; conditions: ECR = equipotent concentration ratio relative to NECA = 1, inhibition of forskolin-stimulated SPAP production
T2 construct: expressed in transfected cells; host or cells: Chinese hamster ovary (CHO) cells with CRE/SPAP/HYG reporter elements
T2 sequence (P0DMS8 1-318): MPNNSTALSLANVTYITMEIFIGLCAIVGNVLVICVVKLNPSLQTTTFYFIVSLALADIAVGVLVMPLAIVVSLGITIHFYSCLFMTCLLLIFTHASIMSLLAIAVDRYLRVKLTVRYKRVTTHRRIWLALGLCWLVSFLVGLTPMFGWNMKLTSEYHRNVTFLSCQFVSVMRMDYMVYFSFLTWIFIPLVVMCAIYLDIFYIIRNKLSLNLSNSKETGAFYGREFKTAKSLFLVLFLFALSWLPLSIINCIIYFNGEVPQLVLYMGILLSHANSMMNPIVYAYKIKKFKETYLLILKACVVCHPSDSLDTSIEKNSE
Description: as §1, §2, §3

| SMILES | Adenosine A1 receptor ECR* [1] | Adenosine A3 receptor ECR* [2] |
| --- | --- | --- |
| CCOC(=O)N1CCC(Nc2ncnc3c2ncn3[C@@H]2O[C@H](c3nc(C)no3)[C@@H](O)[C@H]2O)CC1 [Example 37, ethyl 4-({9-[(2R,3R,4S,5S)-3,4-dihydroxy-5-(3-methyl-1,2,4-oxadiazol-5-yl)tetrahydrofuran-2-yl]-9H-purin-6-yl}amino)piperidine-1-carboxylate] | 4.19 | 507 |
| CC(C)(C)c1nnc([C@H]2O[C@@H](n3cnc4c(Nc5ccc(Cl)cc5F)ncnc43)[C@H](O)[C@@H]2O)[nH]1 [Example 67, (2R,3S,4 R,5 R)-2-[5-(tert-butyl)-4H-1,2,4-triazol-3-yl]-5-[6-(4-chloro-2-fluoroanilino)-9H-purin-9-yl]tetrahydrofuran-3,4-diol] | 9.8 | 827.66 |
| Cc1cccc(NS(=O)(=O)CCNc2ncnc3c2ncn3[C@@H]2O[C@H](c3nnc(C(C)(C)C)o3)[C@@H](O)[C@H]2O)c1 [Example 126, 2-[(9-{(2R,3R,4S,5S)-5-[5-(tert-butyl)-1,3,4-oxadiazol-2-yl]-3,4-dihydroxytetrahydrofuran-2-yl}-9H-purin-6-yl)amino]-N-(3-methylphenyl)ethanesulfonamide] | 13.9 | – |
| Cc1cnc([C@H]2O[C@@H](n3cnc4c(Nc5ccc(F)cc5Cl)nc(Cl)nc43)[C@H](O)[C@@H]2O)o1 [Example 143, (2R,3R,4S,5S)-2-[2-chloro-6-(2-chloro-4-fluoroanilino)-9H-purin-9-yl]-5-(5-methyl-1,3-oxazol-2-yl)tetrahydrofuran-3,4-diol] | 19.6 | >74.1 |
| CCc1cc([C@H]2O[C@@H](n3cnc4c(N[C@H]5CCC[C@@H]5O)ncnc43)[C@H](O)[C@@H]2O)on1 [Example 136, (2S,3S,4R,5R)-2-(3-ethylisoxazol-5-yl)-5-(6-{[(1S,2S)-2-hydroxycyclopentyl]amino}-9H-purin-9-yl)tetrahydrofuran-3,4-diol] | 1.95 | – |
| CCc1cc([C@H]2O[C@@H](n3cnc4c(NC(CC)CC)nc(Cl)nc43)[C@H](O)[C@@H]2O)no1.O=CO [Example 163, (2R,3R,4S,5R)-2-{2-chloro-6-[(1-ethylpropyl)amino]-9H-purin-9-yl}-5-(5-ethylisoxazol-3-yl)tetrahydrofuran-3,4-diol Formate] | 1.34 | 232 |
| CC(C)c1nnc([C@H]2O[C@@H](n3cnc4c(NC5CCOCC5)ncnc43)[C@H](O)[C@@H]2O)[nH]1 [Example 141, (2R,3S,4R,5R)-2-(5-isopropyl-4H-1,2,4-triazol-3-yl)-5-[6-(tetrahydro-2H-pyran-4-ylamino)-9H-purin-9-yl]tetrahydrofuran-3,4-diol] | 12.08 | 228 |
| O[C@@H]1[C@H](O)[C@@H](c2cc(C3CC3)no2)O[C@H]1n1cnc2c(Nc3ccc(Cl)cc3F)ncnc21 [Example 182, (2R,3R,4S,5S)-2-[6-(4-chloro-2-fluoroanilino)-9H-purin-9-yl]-5-(3-cyclopropyl-isoxazol-5-yl)-tetrahydrofuran-3,4-diol] | 3.48 | – |
| CCC(CC)Nc1nc(Cl)nc2c1ncn2[C@@H]1O[C@H](c2nc(C3CC3)no2)[C@@H](O)[C@H]1O.O=CO.O=CO [Example 133, (2R,3R,4S,5S)-2-{2-chloro-6-[(1-ethylpropyl)amino]-9H-purin-9-yl}-5-(3-cyclopropyl-1,2,4-oxadiazol-5-yl)tetrahydrofuran-3,4-diol formate (1:2)] | 25.47 | 466.92 |
| Cc1cc([C@H]2O[C@@H](n3cnc4c(Nc5ccc(Cl)cc5F)ncnc43)[C@H](O)[C@@H]2O)on1 [Example 144, (2R,3R,4S,5S)-2-[6-(4-chloro-2-fluoroanilino)-9H-purin-9-yl]-5-(3-methylisoxazol-5-yl)tetrahydrofuran-3,4-diol] | 2.8 | – |
| O[C@@H]1[C@H](O)[C@@H](c2cc(Br)no2)O[C@H]1n1cnc2c(Nc3ccc(Cl)cc3F)ncnc21 [Example 164, (2S,3S,4R,5R)-2-(3-bromoisoxazol-5-yl)-5-[6-(4-chloro-2-fluoroanilino)-9H-purin-9-yl]tetrahydrofuran-3,4-diol] | 4.3 | – |
| CC(C)CNc1ncnc2c1ncn2[C@@H]1O[C@H](c2nc(C(C)(C)C)no2)[C@@H](O)[C@H]1O [Example 45, (2S,3S,4R,5R)-2-[3-(tert-butyl)-1,2,4-oxadiazol-5-yl]-5-[6-(isobutylamino)-9H-purin-9-yl]tetrahydrofuran-3,4-diol] | 7.36 | 165.54 |
| O[C@@H]1[C@H](O)[C@@H](c2nnc(C(F)(F)F)o2)O[C@H]1n1cnc2c(N[C@H]3CCC[C@@H]3O)ncnc21 [Example 179, (2R,3R,4S,5S)-2-(6-{[(1S,2S)-2-hydroxy-cyclopentyl]-amino}-9H-purin-9-yl)-5-[5-(trifluoromethyl)-1,3,4-oxadiazol-2-yl]-tetrahydrofuran-3,4-diol] | 12.6 | – |
| CC(C)(C)c1nnc([C@H]2O[C@@H](n3cnc4c(Nc5ccc(Cl)cc5F)ncnc43)[C@H](O)[C@@H]2O)o1 [Example 14, (2S,3S,4R,5R)-2-(5-tert-Butyl-[1,3,4]oxadiazol-2-yl)-5-[6-(4-chloro-2-fluoro-phenylamino)-purin-9-yl]-tetrahydro-furan-3,4-diol] | 5.8 | 1066.71 |
| CCNS(=O)(=O)CCNc1ncnc2c1ncn2[C@@H]1O[C@H](c2nnc(C(C)(C)C)o2)[C@@H](O)[C@H]1O [Example 123, 2-[(9-{(2R,3 R,4S,5S)-5-[5-(tert-butyl)-1,3,4-oxadiazol-2-yl]-3,4-dihydroxytetrahydrofuran-2-yl}-9H-purin-6-yl)amino]-N-ethylethanesulfonamide] | 4.19 | 325.44 |
| CC(C)c1noc([C@H]2O[C@@H](n3cnc4c(NC5CC5)ncnc43)[C@H](O)[C@@H]2O)n1 [Example 51, (2R,3R,4S,5S)-2-[6-(cyclopropylamino)-9H-purin-9-yl]-5-(3-isopropyl-1,2,4-oxadiazol-5-yl)tetrahydrofuran-3,4-diol] | 7.56 | 587.75 |
| CCc1cnc([C@H]2O[C@@H](n3cnc4c(NC5CCOCC5)ncnc43)[C@H](O)[C@@H]2O)o1 [Example 16, (2S,3S,4R,5R)-2-(5-Ethyl-oxazol-2-yl)-5-[6-(tetrahydro-pyran-4-ylamino)-purin-9-yl]-tetrahydro-furan-3,4-diol] | 9.6 | 201 |
| CC(C)c1nnc([C@H]2O[C@@H](n3cnc4c(NC5CCOCC5)ncnc43)[C@H](O)[C@@H]2O)o1 [Example 6, (2S,3S,4R,5R)-2-(5-Isopropyl-[1,3,4]oxadiazol-2-yl)-5-[6-(tetrahydro-pyran-4-ylamino)-purin-9-yl]-tetrahydro-furan-3,4-diol] | 1.71 | 134 |
| Cc1nnc([C@H]2O[C@@H](n3cnc4c(Nc5ccc(Cl)cc5F)ncnc43)[C@H](O)[C@@H]2O)o1 [Example 181] | 8.57 | – |
| CCc1cc([C@H]2O[C@@H](n3cnc4c(NC5CCOCC5)ncnc43)[C@H](O)[C@@H]2O)on1 [Example 135, (2S,3S,4R,5R)-2-(3-ethylisoxazol-5-yl)-5-[6-(tetrahydro-2H-pyran-4-ylamino)-9H-purin-9-yl]tetrahydrofuran-3,4-diol] | 0.48 | – |
| CCCc1cc([C@H]2O[C@@H](n3cnc4c(Nc5ccc(Cl)cc5F)ncnc43)[C@H](O)[C@@H]2O)on1 [Example 145, (2R,3R,4S,5S)-2-[6-(4-chloro-2-fluoroanilino)-9H-purin-9-yl]-5-(3-propylisoxazol-5-yl)tetrahydrofuran-3,4-diol] | 24.9 | – |
| CCOC(=O)N1CCC(Nc2ncnc3c2ncn3[C@@H]2O[C@H](c3cc(CC)no3)[C@@H](O)[C@H]2O)CC1 [Example 138, ethyl 4-({9-[(2R,3R,4S,5S)-5-(3-ethylisoxazol-5-yl)-3,4-dihydroxytetrahydrofuran-2-yl]-9H-purin-6-yl}amino)piperidine-1-carboxylate] | 1.31 | – |
